# Entries after “also recorded” stand apart in the source; their conditions may differ. Where two headings read alike, the source gives them in different places. Positions of bridges follow the written chain, without caps; N, C: chain ends. No end group written: not given here.
# Columns and labels:
# [1] = test system: ERG potassium channels (hERG1); settings: ref [22],[46]; cited from earlier work
# Text: Scorpion venom is a mixture of proteins, peptides and enzymes, carbohydrates, free amines, nucleotides, lipids, and other low molecular weight components with unknown function. Peptides that act as ion channel modulators are the main agents responsible for the venom toxicity and they have been classified according to their targets into: sodium scorpion toxins (NaScTx), with molecular masses between 6–8 kDa, potassium scorpion toxins (KScTx), with molecular masses between 3–5 kDa, and calcium scorpion toxins (CaScTx) that comprise peptides acting on voltage gated calcium channel ... || The effect of the CmERG1 toxin was evaluated on the hERG1 channel by means of electrophysiology experiments. […] Dose response curves were calculated by application of toxin concentrations from 1 nM to 1 µM. […] This feature is different from the other γKTxs, like CnERG1, ... || Two models were proposed to explain the uncommon feature of the γKTxs that comprises a partial current block, despite the saturation concentration, and the acceleration of the closing process due to the toxin preference for the channel closed state. In one kinetic model proposed by Hill and collaborators, first the toxin binds to the channel in a toxin channel encounter complex permissive to ion flow (TC*) and then passes to the blocked toxin-channel complex (TC). […]
# [2] = biological target: T1, hERG1 channel (Homo sapiens, UniProt Q12809); test: Patch-clamp electrophysiology, block of hERG1 tail currents (dose-response) in CHO cells stably expressing hERG1; format: cell-based; settings: for activity on hERG1 channels, in words (venom fraction screening / purified peptide): electrophysiology screening
# T1 construct: expressed in transfected cells
# Protocol: CHO cells stably expressing hERG1 potassium channels were used for the electrophysiological experiments (hERG1 accession number: NP_000229). We previously prepared this cell line stably transfecting CHO cells with plasmid pcDNA3.1-hERG1 (a kind gift from Enzo Wanke from University of Milano-Bicocca, Italy). Briefly: CHO cells at 80% confluence in a 35 mm culture plate were transfected with 2 µg of pcDNA3.1-hERG1 mixed with 7 uL of Lipofectamine (Invitrogen), accordingly to the manufacturer instructions. After 3 days, cells were selected by adding to the culture medium 2 mg/mL of G418 (SIGMA). After 10 days of selection, cells were cloned by limiting dilution and the resulting clones were probed for their current expression by electrophysiological recordings. High glucose DMEM (Dulbecco’s Modified Eagle Medium, SIGMA, Naucalpan de Juarez, Edo de Mexico, Mexico), supplemented with 10% Fetal Bovine Serum (Biotecfron, Emiliano Zapata, Morelos, Mexico) and with 500 µg/mL of antibiotic G418 (SIGMA) was used as growth medium. Cells were routinely maintained at 37 °C with 5% of CO2 in humidified atmosphere.
# Intracellular solution contained in mM: 130 K-Aspartate, 10 NaCl, 2 MgCl2, 10 HEPES, 10 EGTA, pH 7.3 adjusted with NaOH. Extracellular solution contained in mM: 95 NaCl, 40 KCl, 2 CaCl2, 2 MgCl2, 10 HEPES, 5 glucose, pH 7.3 adjusted with NaOH. A concentrated 100–1000× stock was prepared dissolving lyophilized toxin in distilled water and stored at −20 °C until the used (no more than 3 weeks). Solutions were delivered to the cell under patch by means of an active perfusion system connected to a variable speed syringe pump (model A-99 from Razel Scientific Instruments (Saint Albans VT, USA)). The perfusion rate was approximately 1µL/s.
# Patch pipettes were manufactured from capillary borosilicate glass tubing (Warner Instruments, Hamden, CT, USA) by means of a vertical puller model P-30 (Sutter Instrument, Novato, CA, USA). When pipettes were filled with internal solution, pipette resistance was between 1.5–3 MOhm.
# During the depolarizing steps, hERG1 currents are usually small (Figure S1). This is a consequence of the slow activation kinetics (in seconds) and the very fast inactivation kinetics (in milliseconds) of this channel that can be considered an inward rectifier. Therefore, it is a common practice to record the tail currents during the hyperpolarization, where the inactivation is quickly removed and the deactivation occurs slowly. For the dose response curve (Figure 3), tail currents of hERG1 were recorded at −120 mV for 500 ms, after a preconditioning pulse at 60 mV for 500 ms every 5 s. Peak currents recorded in absence and in presence of the toxin were normalized to the maximal peak current in control condition and plotted versus the logarithm of toxin concentration. Data were fitted by a logistic equation. For the voltage dependence of activation study, hERG1 tail currents were recorded during a step at −120 mV for 500 ms, preceded by a 5 s depolarization steps in the range between 30 to −80 mV. To determine the voltage dependence of inactivation, currents were recorded after a depolarization at 40 mV for 1 s, during depolarization steps in the range between 40 to −170 mV. Currents recorded at potentials lower than −90 mV were corrected for deactivation: the deactivation process was fitted by a single exponential extrapolated to the zero point of each step. Data from both activation and inactivation protocols, in absence and in presence of the toxin, were normalized, plotted versus membrane potential, and fitted by a Boltzmann function.
# Currents were acquired by using MultiClamp 700A amplifier and DigiData 1440a (Molecular Devices, San Jose, CA, USA). Off-line analysis and graphs were performed by using Clampfit 10 (Molecular Devices) and Origin 8 (OriginLab, Northampton MA, USA).
# Where it is not otherwise indicated, electrophysiological data represent the mean of 3–6 cells ± standard error (S.E.). […]
# [3] = biological target: T1, hERG1 channel; test: Patch-clamp, voltage dependence of (steady state) inactivation of hERG1; format: cell-based; settings: 4 nM, n = 5
# Protocol: Figure 4 Effect of CmERG1 at 4 nM on the voltage dependence of activation and inactivation. (A) Stimulation protocol used to study the voltage dependence of activation. Tail currents were elicited by 5 s preconditioning steps ranging from +30 to −80 mV, followed by a 500 ms pulse at −120 mV. (B,C) typical example of tail currents recorded in control conditions and during application of CmERG1, respectively. (D) Voltage dependence of activation. Normalized peak currents are plotted against the voltage of the preconditioning pulses in control conditions (black squares) and in the presence of 4 nM CmERG1 (grey squares). Black lines are the best fit obtained to a Boltzmann equation giving V1/2 for activation of −37.5 ± 1.4 mV and −34.8 ± 0.8 mV and slope of 6.0 ± 0.3 and 8 ± 0.7 for the control and in the presence of 4 nM CmERG1, respectively (mean ± SE and n = 5, analyzed by paired sample t-test at 0.05 level). (E) Stimulation used to study the voltage dependence of inactivation. Currents were elicited by a 1 s preconditioning pulse at 40 mV followed by depolarization steps ranging from −170 mV to 40 mV. Currents recorded at potentials lower than −90 mV were corrected for deactivation as shown in the inset of panel (F). The deactivation process was fitted by a single exponential (grey dash line) extrapolated to the zero point of the depolarization step, indicated by the arrow. (F,G) typical example of currents recorded in control conditions and in presence of 4 nM CmERG1 respectively. (H) Voltage dependence of inactivation. […] Black lines are the best fit obtained by a Boltzmann equation giving V1/2 for inactivation of −77.6 ± 3.6 mV and −79 ± 1.3 mV and slope of 28.2 ± 2.2 and 29 ± 1.5 for control conditions and in presence of 4 nM CmERG1, respectively (mean ± SE and n = 5, analyzed by paired sample t-test at 0.05 level).
# For steady state inactivation, tail currents were recorded during 500 ms depolarization steps from −170 to 40 mV, after a depolarization at 40 mV for 1 s (Figure 4E). Figure 4F,G show an example of currents recorded in the absence and in the presence of toxin. […]
# [4] = biological target: T1, hERG1 channel; test: Patch-clamp, voltage dependence of activation of hERG1; format: cell-based; settings: 4 nM
# Protocol: To understand better the activity of CmERG1 on hERG1, we analyzed the voltage dependence of the activation and inactivation processes in presence or absence of CmERG1 at 4 nM, a concentration close to the IC50. For the activation, tail currents were elicited at −120 mV after 5 s preconditioning pulses from 30 to −80 mV (Figure 4A). Figure 4B,C illustrates typical currents recorded in the absence and in the presence of CmERG1. Tail currents were normalized, plotted versus preconditioning potentials, and fitted to a Boltzmann equation (Figure 4D). […]
# Figure 4 Effect of CmERG1 at 4 nM on the voltage dependence of activation and inactivation. […] (B,C) typical example of tail currents recorded in control conditions and during application of CmERG1, respectively. […] Black lines are the best fit obtained to a Boltzmann equation giving V1/2 for activation of −37.5 ± 1.4 mV and −34.8 ± 0.8 mV and slope of 6.0 ± 0.3 and 8 ± 0.7 for the control and in the presence of 4 nM CmERG1, respectively (mean ± SE and n = 5, analyzed by paired sample t-test at 0.05 level). […] Currents recorded at potentials lower than −90 mV were corrected for deactivation as shown in the inset of panel (F). […] (F,G) typical example of currents recorded in control conditions and in presence of 4 nM CmERG1 respectively. […]
# [5] = test system: Kv1.2 channel; settings: affinity compared with Kv1.3; ref [31] (ref [30],[31]); cited from earlier work
# Text: (§1) Until now, little is known about the C. margaritatus venom composition. […] Thereafter, in a proteomics study of C. margaritatus venom, two other peptides were isolated and characterized: a peptide with 24 amino acids and 3 disulfide bridges (MW = 2609.15 Da) and a peptide with 30 amino acids and 3 disulfide bridges (MW = 3376 Da), both cla ... || Despite the fact that the C. margaritatus scorpion belongs to the Buthidae […], its venom has been considered of low toxicity, but as mentioned above, in Colombia this species has caused a few cases of moderate and severe scorpionism.
# [6] = test system: Kv1.1 channel; settings: affinity compared with Kv1.3; ref [31] (ref [30],[31]); cited from earlier work
# Text: as §1
# [7] = test system: Kv1.3 channel; settings: human peripheral T lymphocytes, ref [30] (ref [30],[31]), cited from earlier work
# Text: as §1
# T1 sequence (Q12809 whole entry): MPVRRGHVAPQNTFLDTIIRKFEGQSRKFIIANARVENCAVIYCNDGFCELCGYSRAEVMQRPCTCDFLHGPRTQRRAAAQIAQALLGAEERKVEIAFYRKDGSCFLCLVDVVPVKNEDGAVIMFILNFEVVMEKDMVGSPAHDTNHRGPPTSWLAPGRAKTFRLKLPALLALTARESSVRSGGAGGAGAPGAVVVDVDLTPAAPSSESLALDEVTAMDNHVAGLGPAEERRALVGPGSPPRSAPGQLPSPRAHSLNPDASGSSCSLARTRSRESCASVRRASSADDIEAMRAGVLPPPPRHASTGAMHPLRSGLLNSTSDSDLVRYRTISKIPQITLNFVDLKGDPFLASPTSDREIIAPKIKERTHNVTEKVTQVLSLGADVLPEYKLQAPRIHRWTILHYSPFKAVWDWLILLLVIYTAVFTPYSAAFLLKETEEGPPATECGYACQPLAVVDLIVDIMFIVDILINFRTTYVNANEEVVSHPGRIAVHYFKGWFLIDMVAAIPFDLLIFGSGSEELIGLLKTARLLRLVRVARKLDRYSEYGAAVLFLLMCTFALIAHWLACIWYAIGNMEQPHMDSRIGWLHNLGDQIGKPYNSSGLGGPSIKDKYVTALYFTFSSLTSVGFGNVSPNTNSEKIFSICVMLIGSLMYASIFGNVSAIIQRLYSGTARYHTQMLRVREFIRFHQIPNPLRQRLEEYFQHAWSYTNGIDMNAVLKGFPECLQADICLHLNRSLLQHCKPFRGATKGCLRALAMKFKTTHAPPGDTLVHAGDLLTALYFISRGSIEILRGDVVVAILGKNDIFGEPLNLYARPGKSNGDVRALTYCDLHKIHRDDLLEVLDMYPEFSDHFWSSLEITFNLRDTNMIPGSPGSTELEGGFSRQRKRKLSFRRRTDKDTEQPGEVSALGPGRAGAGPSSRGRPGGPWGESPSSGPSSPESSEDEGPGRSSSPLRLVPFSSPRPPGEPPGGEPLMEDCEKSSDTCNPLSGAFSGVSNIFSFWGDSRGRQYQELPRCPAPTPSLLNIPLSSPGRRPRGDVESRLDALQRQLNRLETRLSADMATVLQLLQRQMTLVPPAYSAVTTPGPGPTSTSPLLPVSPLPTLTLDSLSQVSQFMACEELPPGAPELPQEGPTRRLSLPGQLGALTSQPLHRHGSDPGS
substance,measurement,setting,value
BeKm-1,state dependence of channel-toxin interaction,[1],toxin binds preferentially to the closed channels while inactivation promotes toxin unbinding
"DRDSCVDKSRCAKYGYFQECTDCCKKYGHNGGTCMFFKCKCA (disulfide 5-23, 11-34, 20-39, 24-41) [CmERG1]",slope of dose-response curve (logistic equation),"[2]; CHO cells stably expressing hERG1, 1 nM to 1 µM, tail currents at −120 mV",1.1 ± 0.05
same,IC50,"[2]; CHO cells stably expressing hERG1, tail currents at −120 mV after preconditioning at 60 mV for 500 ms every 5 s, 1 nM to 1 µM, logistic fit, mean ± S.E., n = 3-6 cells per concentration, read-out: IC50, inhibition of hERG1 currents",3.4 ± 0.2 nM
same,onset and reversibility of block,"[2]; CHO-hERG1 patch clamp, application at 1 µM and washout, pulses every 5 s",blocks channels in a fast and reversible manner
same,"block of hERG1 current, in words","[2]; CHO-hERG1 patch clamp, highest concentration 1 µM (n = 3)",completely blocks hERG1 current; also recorded: able to almost completely block the channels; also recorded: full blocking
same,block of hERG1 current,"[2]; CHO-hERG1 patch clamp, maximal block",100%
same,effect on kinetics of the closing (deactivation) process,"[2]; CHO-hERG1 patch clamp, representative currents at 300 nM and 3 nM",does not accelerate the kinetics of the closing process; also recorded: absence of deactivation process acceleration
same,difference in efficiency at a total block of current between CmERG1 and CnERG1,[2]; CmERG1 versus CnERG1,10%
same,"activity on hERG1 channels, in words (venom fraction screening / purified peptide)",[2],active on hERG1
same,"activity on hERG1 channels, in words (venom fraction screening / purified peptide)",[2]; listed as peptide corresponding to 4792.88 Da,confirmed the activity of this peptide against hERG1
same,slope of voltage dependence of inactivation in presence of toxin,"[3]; Boltzmann fit, control 28.2 ± 2.2, mean ± SE",29 ± 1.5
same,V1/2 for inactivation in presence of toxin,"[3]; Boltzmann fit, control −77.6 ± 3.6 mV, mean ± SE",−79 ± 1.3 mV
same,"effect on voltage dependence of steady state inactivation, in words",[3]; paired sample t-test at 0.05 level,does not induce significant changes on the voltage dependence of inactivation; also recorded: no modification of the steady state inactivation
same,V1/2 for activation (potential of half activation) in presence of toxin,"[4]; Boltzmann fit, control −37.5 ± 1.4 mV, mean ± SE, n = 4 or n = 5, paired t-test",-34.8 ± 0.8 mV
same,"effect on total current / voltage dependence of activation, in words","[4]; n = 4, paired sample t-test at 0.05 level",reduces the total current with a tendency to modify the potential of half activation
Margatoxin,"inhibition of Kv1.2, in words",[5],block also Kv1.1 and Kv 1.2
same,"inhibition of Kv1.1, in words",[6],block also Kv1.1
same,"inhibition of Kv1.3, in words",[7],potent and specific blocker
same,"inhibition of Kv1.3, in words",[7]; listed as Margatoxin 1,potent inhibitor

# Reference: PMC8273696, “Colombian Scorpion Centruroides margaritatus: Purification and Characterization of a Gamma Potassium Toxin with Full-Block Activity on the hERG1 Channel” (Toxins, 2021)
